Assays:
Format in all cases: in vivo, Arabidopsis thaliana
[1] = tested on: Cesa3_S1037F, fpx1-2 mutant line; test: Greenhouse phytotox, pre-emergent treatment
Protocol: (§1) Additionally, M2 or M3 Arabidopsis plants are tested for improved tolerance to cellulose biosynthesis-inhibiting herbicides in greenhouse studies (e. g. with the following cellulose biosynthesis-inhibiting herbicides: 6-cyclopentyl-N4-(2,3,4,5,6-pentafluorophenyl)-1,3,5-triazine-2,4-diamine; 6-(1-fluoro-1-methyl-ethyl)-N4-(2,3,4,5,6-pentafluorophenyl)-1,3,5-triazine-2,4-diamine; N4-(4-chloro-3,5,6-trifluoro-2-pyridyl)-6-(1-fluoro-1-methyl-ethyl)-1,3,5-triazine-2,4-diamine; 6-(2,6-difluorophenyl)-N4-(2,3,5,6-tetrafluorophenyl)-1,3,5-triazine-2,4-diamine; N4-(4-bromo-2,3,5,6-tetrafluoro-phenyl)-6-(1-fluoro-1-methyl-ethyl)-1,3,5-triazine-2,4-diamine.

[2] = tested on: Cesa3_S983F, fpx1-3 mutant line; test: Greenhouse phytotox, pre-emergent treatment
Protocol: as §1

[3] = tested on: Cesa1_G1013R, fpx2-1 mutant line; test: Greenhouse phytotox, pre-emergent treatment
Protocol: as §1

A. thaliana WT L. erecta = test: Greenhouse phytotox, pre-emergent treatment
Protocol: as §1

[4] = tested on: Cesa3_S1040L, fpx1-1 mutant line; test: Greenhouse phytotox, pre-emergent treatment
Protocol: as §1

[5] = tested on: Cesa1_G1009D, fpx2-3 mutant line; test: Greenhouse phytotox, pre-emergent treatment
Protocol: as §1

[6] = tested on: Cesa1_P1010L, fpx2-2 mutant line; test: Greenhouse phytotox, pre-emergent treatment
Protocol: as §1

[7] = tested on: wildtype Arabidopsis plants; test: Growth inhibition of Arabidopsis lines in 48-well plates, tolerance factor from IC50; details: growth inhibition seven to ten days after seeding
Description: (§2) For selection of cellulose biosynthesis inhibitor resistant plants EMS mutagenized seed populations of Arabidopsis thaliana are used. EMS mutagenized seed populations are either bought from Lehle Seeds (1102 South Industrial Blvd. Suite D, Round Rock, Texas USA) or are generated as described elsewhere (Heim D R, et. al. (1989) Plant Physiol. 90: 146-150). Causative mutations in CESA wildtype sequences (e.g. SEQ ID NO: 1 or 3) are identified as described by Scheible W R et. al. (2001, Proc. Natl. Acad. of Sci. 98: 10079-10084), McCourt et. al. (WO2013/142968) or with the use of next generation sequencing methods as described by Austin R S, et. al. (2011) Plant Journal 67: 715-725.
(§3) Selected Arabidopsis thaliana lines were assayed for improved resistance to azines like 6-cyclopentyl-N4-(2,3,4,5,6-pentafluorophenyl)-1,3,5-triazine-2,4-diamine; 6-(1-fluoro-1-methyl-ethyl)-N4-(2,3,4,5,6-pentafluorophenyl)-1,3,5-triazine-2,4-diamine; 6-cyclohexyl-N2-(2,3,4,5,6-pentafluorophenyl)-1,3,5-triazine-2,4-diamine; 6-(2,6-difluorophenyl)-N2-(2,3,5,6-tetrafluorophenyl)-1,3,5-triazine-2,4-diamine; N2-(4-chloro-3,5,6-trifluoro-2-pyridyl)-6-(1-fluoro-1-methyl-ethyl)-1,3,5-triazine-2,4-diamine in 48-well plates. Therefore, M2 or M3 seeds are surface sterilized by stirring for 5 min in ethanol+water (70+30 by volume), rinsing one time with ethanol+water (70+30 by volume) and two times with sterile, deionized water. The seeds are resuspended in 0.1% agar dissolved in water (w/v) Four to five seeds per well are plated on solid nutrient medium consisting of half-strength murashige skoog nutrient solution, pH 5.8 (Murashige and Skoog (1962) Physiologia Plantarum 15: 473-497). Compounds are dissolved in dimethylsulfoxid (DMSO) and added to the medium prior solidification (final DMSO concentration 0.1%). Multi well plates are incubated in a growth chamber at 22° C., 75% relative humidity and 110 μmol Phot*m^−2*s^−1 with 14:10 h light:dark photoperiod. Growth inhibition is evaluated seven to ten days after seeding in comparison to wild type plants. Tolerance factors are calculated based on IC50 values of growth inhibition of transformed versus non-transformed Arabidopsis plants (Table 3).

[8] = tested on: Arabidopsis mutant line Cesa1_G1009D; test: as above; details: growth inhibition seven to ten days after seeding
Description: as §2, §3

[9] = tested on: Arabidopsis mutant line Cesa3_S1040L; test: as above; details: growth inhibition seven to ten days after seeding
Description: as §2, §3

[10] = tested on: Arabidopsis mutant line Cesa3_S983F; test: as above; details: growth inhibition seven to ten days after seeding
Description: as §2, §3

[11] = tested on: Arabidopsis mutant line Cesa1_P1010L; test: as above; details: growth inhibition seven to ten days after seeding
Description: as §2, §3

[12] = tested on: Arabidopsis mutant line Cesa1_G1013R; test: as above; details: growth inhibition seven to ten days after seeding
Description: as §2, §3

[13] = tested on: Arabidopsis mutant line Cesa3_S1037F; test: as above; details: growth inhibition seven to ten days after seeding
Description: as §2, §3

SMILES | Phytotox value on a scale from 0-100 (100 is 100% damage) ([1]; 0.98 g ai/ha) | Phytotox value on a scale from 0-100 (100 is 100% damage) ([1]; 3.91 g ai/ha) | Phytotox value on a scale from 0-100 (100 is 100% damage) ([2]; 0.98 g ai/ha) | Phytotox value on a scale from 0-100 (100 is 100% damage) ([2]; 3.91 g ai/ha) | Phytotox value on a scale from 0-100 (100 is 100% damage) ([3]; 0.98 g ai/ha) | Phytotox value on a scale from 0-100 (100 is 100% damage) ([3]; 3.91 g ai/ha) | Phytotox value on a scale from 0-100 (100 is 100% damage) (A. thaliana WT L. erecta; 0.98 g ai/ha) | Phytotox value on a scale from 0-100 (100 is 100% damage) (A. thaliana WT L. erecta; 3.91 g ai/ha) | Phytotox value on a scale from 0-100 (100 is 100% damage) ([4]; 0.98 g ai/ha) | Phytotox value on a scale from 0-100 (100 is 100% damage) ([4]; 3.91 g ai/ha) | Phytotox value on a scale from 0-100 (100 is 100% damage) ([5]; 0.98 g ai/ha) | Phytotox value on a scale from 0-100 (100 is 100% damage) ([5]; 3.91 g ai/ha) | Phytotox value on a scale from 0-100 (100 is 100% damage) ([6]; 0.98 g ai/ha) | Phytotox value on a scale from 0-100 (100 is 100% damage) ([6]; 3.91 g ai/ha) | Relative tolerance rate (wildtype = 1.0) [7] | Relative tolerance rate (wildtype = 1.0) [8] | Relative tolerance rate (wildtype = 1.0) [9] | Relative tolerance rate (wildtype = 1.0) [10] | Relative tolerance rate (wildtype = 1.0) [11] | Relative tolerance rate (wildtype = 1.0) [12] | further results
CC(C)(F)c1nc(N)nc(Nc2c(F)c(F)c(F)c(F)c2F)n1 [6-(1-fluoro-1-methyl-ethyl)-N4-(2,3,4,5,6-pentafluorophenyl)-1,3,5-triazine-2,4-diamine] | 30 | 80 | 75 | 98 | 63 | 97 | 100 | 100 | 75 | 98 | 97 | 100 | 99 | 100 | 1 | 2 | 2 | 1 | 1 | 4 | Phytotox value on a scale from 0-100 (100 is 100% damage) ([1]; 0.0625 g ai/ha): 10; Phytotox value on a scale from 0-100 (100 is 100% damage) ([1]; 0.25 g ai/ha): 20; Phytotox value on a scale from 0-100 (100 is 100% damage) ([2]; 0.0625 g ai/ha): 78; Phytotox value on a scale from 0-100 (100 is 100% damage) ([2]; 0.25 g ai/ha): 45; Phytotox value on a scale from 0-100 (100 is 100% damage) ([3]; 0.0625 g ai/ha): 13; Phytotox value on a scale from 0-100 (100 is 100% damage) ([3]; 0.25 g ai/ha): 65; Phytotox value on a scale from 0-100 (100 is 100% damage) (A. thaliana WT L. erecta; 0.0625 g ai/ha): 38; Phytotox value on a scale from 0-100 (100 is 100% damage) (A. thaliana WT L. erecta; 0.25 g ai/ha): 78; Phytotox value on a scale from 0-100 (100 is 100% damage) ([4]; 0.0625 g ai/ha): 20; Phytotox value on a scale from 0-100 (100 is 100% damage) ([4]; 0.25 g ai/ha): 65; Phytotox value on a scale from 0-100 (100 is 100% damage) ([5]; 0.0625 g ai/ha): 65; Phytotox value on a scale from 0-100 (100 is 100% damage) ([5]; 0.25 g ai/ha): 78; Phytotox value on a scale from 0-100 (100 is 100% damage) ([6]; 0.0625 g ai/ha): 43; Phytotox value on a scale from 0-100 (100 is 100% damage) ([6]; 0.25 g ai/ha): 50; Relative tolerance rate (wildtype = 1.0) [13]: 4
Nc1nc(Nc2c(F)c(F)cc(F)c2F)nc(-c2c(F)cccc2F)n1 [6-(2,6-difluorophenyl)-N2-(2,3,5,6-tetrafluorophenyl)-1,3,5-triazine-2,4-diamine] | 28 | 65 | 18 | 35 | 15 | 35 | 30 | 70 | 13 | 8 | 65 | 38 | 48 | 35 | 1 | 1 | 13 | 1 | 2 | 13 | Phytotox value on a scale from 0-100 (100 is 100% damage) ([1]; 15.63 g ai/ha): 73; Phytotox value on a scale from 0-100 (100 is 100% damage) ([1]; 62.5 g ai/ha): 99; Phytotox value on a scale from 0-100 (100 is 100% damage) ([2]; 15.63 g ai/ha): 43; Phytotox value on a scale from 0-100 (100 is 100% damage) ([2]; 62.5 g ai/ha): 33; Phytotox value on a scale from 0-100 (100 is 100% damage) ([3]; 15.63 g ai/ha): 28; Phytotox value on a scale from 0-100 (100 is 100% damage) ([3]; 62.5 g ai/ha): 40; Phytotox value on a scale from 0-100 (100 is 100% damage) (A. thaliana WT L. erecta; 15.63 g ai/ha): 90; Phytotox value on a scale from 0-100 (100 is 100% damage) (A. thaliana WT L. erecta; 62.5 g ai/ha): 100; Phytotox value on a scale from 0-100 (100 is 100% damage) ([4]; 15.63 g ai/ha): 25; Phytotox value on a scale from 0-100 (100 is 100% damage) ([4]; 62.5 g ai/ha): 28; Phytotox value on a scale from 0-100 (100 is 100% damage) ([5]; 15.63 g ai/ha): 18; Phytotox value on a scale from 0-100 (100 is 100% damage) ([5]; 62.5 g ai/ha): 95; Phytotox value on a scale from 0-100 (100 is 100% damage) ([6]; 15.63 g ai/ha): 65; Phytotox value on a scale from 0-100 (100 is 100% damage) ([6]; 62.5 g ai/ha): 98; Relative tolerance rate (wildtype = 1.0) [13]: 1
Nc1nc(Nc2c(F)c(F)c(F)c(F)c2F)nc(C2CCCCC2)n1 [6-cyclohexyl-N2-(2,3,4,5,6-pentafluorophenyl)-1,3,5-triazine-2,4-diamine] | – | – | – | – | – | – | – | – | – | – | – | – | – | – | 1 | 1 | 10 | 1 | 1 | 4 | Relative tolerance rate (wildtype = 1.0) [13]: 1
CC(C)(F)c1nc(N)nc(Nc2c(F)c(F)c(Br)c(F)c2F)n1 [N4-(4-bromo-2,3,5,6-tetrafluoro-phenyl)-6-(1-fluoro-1-methyl-ethyl)-1,3,5-triazine-2,4-diamine] | 18 | 33 | 23 | 25 | 10 | 35 | 35 | 97 | 5 | 63 | 35 | 68 | 25 | 88 | – | – | – | – | – | – | Phytotox value on a scale from 0-100 (100 is 100% damage) ([1]; 0.25 g ai/ha): 28; Phytotox value on a scale from 0-100 (100 is 100% damage) ([1]; 15.63 g ai/ha): 30; Phytotox value on a scale from 0-100 (100 is 100% damage) ([2]; 0.25 g ai/ha): 35; Phytotox value on a scale from 0-100 (100 is 100% damage) ([2]; 15.63 g ai/ha): 45; Phytotox value on a scale from 0-100 (100 is 100% damage) ([3]; 0.25 g ai/ha): 10; Phytotox value on a scale from 0-100 (100 is 100% damage) ([3]; 15.63 g ai/ha): 73; Phytotox value on a scale from 0-100 (100 is 100% damage) (A. thaliana WT L. erecta; 0.25 g ai/ha): 8; Phytotox value on a scale from 0-100 (100 is 100% damage) (A. thaliana WT L. erecta; 15.63 g ai/ha): 100; Phytotox value on a scale from 0-100 (100 is 100% damage) ([4]; 0.25 g ai/ha): 13; Phytotox value on a scale from 0-100 (100 is 100% damage) ([4]; 15.63 g ai/ha): 93; Phytotox value on a scale from 0-100 (100 is 100% damage) ([5]; 0.25 g ai/ha): 50; Phytotox value on a scale from 0-100 (100 is 100% damage) ([5]; 15.63 g ai/ha): 99; Phytotox value on a scale from 0-100 (100 is 100% damage) ([6]; 0.25 g ai/ha): 25; Phytotox value on a scale from 0-100 (100 is 100% damage) ([6]; 15.63 g ai/ha): 99

— US12480137B2, “Plants having increased tolerance to herbicides” (BASF SE, priority 2014, dated 2025)
